Experimental data published in the supplement of paper PMC10307832.

Columns and labels:
Assay in all cases: relative viability (nuclei count vs DMSO), 5 days (fraction); higher = more cells survive
R406 + Bortezomib = compound: COc1cc(Nc2ncc(F)c(Nc3ccc4c(n3)NC(=O)C(C)(C)O4)n2)cc(OC)c1OC [R406] + CC(C)C[C@H](NC(=O)[C@H](Cc1ccccc1)NC(=O)c1cnccn1)B(O)O [Bortezomib] (partner 0.002 µM)
How it was run: (§1)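 Cells from lung cancer lines were seeded into 1536-well plates and, one day later, dosed by pin tool. Treatments were either a single drug or a fixed dose of an anchor drug with five library-drug doses (not always all listed) in √10 steps. After 5 days, nuclei were stained in a one-step fixation (final 0.05% Triton X-100, 1% formaldehyde, 1 ug/ml Hoechst) and counted on 4× images, and relative viability is the treated-to-vehicle nuclei ratio, as the median of duplicate plates.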

R406 + Tozasertib = compound: COc1cc(Nc2ncc(F)c(Nc3ccc4c(n3)NC(=O)C(C)(C)O4)n2)cc(OC)c1OC [R406] + Cc1cc(Nc2cc(N3CCN(C)CC3)nc(Sc3ccc(NC(=O)C4CC4)cc3)n2)n[nH]1 [Tozasertib] (partner 0.1 µM)
How it was run: as §1

R406 + Olaparib = compound: COc1cc(Nc2ncc(F)c(Nc3ccc4c(n3)NC(=O)C(C)(C)O4)n2)cc(OC)c1OC [R406] + O=C(c1cc(Cc2n[nH]c(=O)c3ccccc23)ccc1F)N1CCN(C(=O)C2CC2)CC1 [Olaparib] (partner 8 µM)
How it was run: as §1

R406 + Lapatinib = compound: COc1cc(Nc2ncc(F)c(Nc3ccc4c(n3)NC(=O)C(C)(C)O4)n2)cc(OC)c1OC [R406] + CS(=O)(=O)CCNCc1ccc(-c2ccc3ncnc(Nc4ccc(OCc5cccc(F)c5)c(Cl)c4)c3c2)o1 [Lapatinib] (partner 2 µM)
How it was run: as §1

| Cell Line | relative viability (R406 + Bortezomib; first compound 0.08 µM) | relative viability (R406 + Bortezomib; first compound 0.253 µM) | relative viability (R406 + Bortezomib; first compound 0.8 µM) | relative viability (R406 + Bortezomib; first compound 2.53 µM) | relative viability (R406 + Bortezomib; first compound 8 µM) | relative viability (R406 + Tozasertib; first compound 0.08 µM) | relative viability (R406 + Tozasertib; first compound 0.253 µM) | relative viability (R406 + Tozasertib; first compound 0.8 µM) | relative viability (R406 + Tozasertib; first compound 2.53 µM) | relative viability (R406 + Tozasertib; first compound 8 µM) | relative viability (R406 + Olaparib; first compound 0.08 µM) | relative viability (R406 + Olaparib; first compound 0.253 µM) | relative viability (R406 + Olaparib; first compound 0.8 µM) | relative viability (R406 + Olaparib; first compound 2.53 µM) | relative viability (R406 + Olaparib; first compound 8 µM) | relative viability (R406 + Lapatinib; first compound 0.08 µM) | relative viability (R406 + Lapatinib; first compound 0.253 µM) | relative viability (R406 + Lapatinib; first compound 0.8 µM) | relative viability (R406 + Lapatinib; first compound 2.53 µM) | relative viability (R406 + Lapatinib; first compound 8 µM) |
| --- | --- | --- | --- | --- | --- | --- | --- | --- | --- | --- | --- | --- | --- | --- | --- | --- | --- | --- | --- | --- |
| ChaGo-K-1 | 1.02 | 1.06 | 1.11 | 0.823 | 0.347 | 0.224 | 0.203 | 0.251 | 0.218 | 0.164 | 0.381 | 0.485 | 0.438 | 0.422 | 0.296 | – | – | – | – | – |
| LK-2 | – | – | – | – | – | 0.17 | 0.163 | 0.166 | 0.182 | 0.186 | 0.592 | 1.13 | 0.888 | 0.661 | 0.305 | 0.856 | 1.03 | 0.843 | 0.472 | 0.321 |
| NCI-H1648 | – | – | – | – | – | – | – | 0.498 | 0.608 | 0.639 | 0.758 | 1.06 | 0.906 | 0.886 | 0.884 | – | – | – | – | – |
| NCI-H1623 | – | – | – | – | – | 0.447 | 0.419 | 0.442 | 0.429 | 0.401 | – | – | – | – | – | – | – | – | – | – |
| A549 | – | – | – | – | – | – | – | – | – | – | 0.28 | 0.464 | 0.328 | 0.0554 | 0.306 | 0.882 | 1.04 | 1.1 | 0.545 | 0.215 |
| NCI-H1944 | – | – | – | – | – | 0.252 | 0.272 | 0.241 | 0.228 | 0.181 | 0.35 | 0.382 | 0.38 | 0.361 | 0.328 | 0.756 | 0.862 | 0.855 | 0.559 | 0.614 |
| NCI-H1563 | 0.764 | 1 | 0.873 | 0.523 | 0.574 | – | – | – | – | – | – | – | – | – | – | 0.886 | 1.06 | 1.06 | 0.506 | 0.574 |
| NCI-H1395 | – | – | – | – | – | 0.714 | 0.77 | 0.734 | 0.647 | 0.519 | 0.455 | 0.475 | 0.444 | 0.421 | 0.362 | 0.821 | 1.1 | 0.986 | 0.851 | 0.491 |
| SK-MES-1 | – | – | – | – | – | 0.916 | 0.942 | 0.914 | 0.719 | 0.377 | 0.613 | 0.677 | 0.715 | 0.327 | 0.174 | 0.416 | 0.477 | 0.5 | 0.449 | 0.295 |
| IA-LM | 0.878 | 0.841 | 0.815 | 0.904 | 0.705 | – | – | – | – | – | 0.835 | 1.03 | 0.913 | 0.986 | 0.882 | 0.99 | 1.26 | 0.797 | 1.01 | 0.777 |
| NCI-H1703 | 0.451 | 0.32 | 0.588 | 0.183 | 0.167 | – | – | – | – | – | 0.298 | 0.474 | 0.355 | 0.277 | 0.124 | 1.52 | – | 1.03 | 0.218 | 0.17 |
| SW 900 | – | – | – | – | – | 0.49 | 0.584 | 0.459 | 0.515 | 0.44 | 0.956 | 0.855 | 0.57 | 0.492 | 0.115 | – | – | – | – | – |
